Measurements from ChEMBL document CHEMBL1129762, “Synthesis and antibacterial activity of 4- and 8-methoxy trinems” (1996).

Experiments:
Format in all cases: functional
Clostridium perfringens = assay: In vitro antibacterial activity against Clostridium perfringens 615E
Enterococcus faecalis = assay: In vitro antibacterial activity against Enterococcus faecalis 850.
Escherichia coli [1] = assay: In vitro antibacterial activity against Escherichia coli 1850
Escherichia coli [2] = assay: In vitro antibacterial activity against Escherichia coli 1919
Staphylococcus aureus [3] = assay: In vitro antibacterial activity against Staphylococcus aureus 663E.
Staphylococcus aureus [4] = assay: In vitro antibacterial activity against Staphylococcus aureus 853.

| SMILES | MIC (Clostridium perfringens) [µg/mL] | MIC (Enterococcus faecalis) [µg/mL] | MIC (Escherichia coli [1]) [µg/mL] | MIC (Escherichia coli [2]) [µg/mL] | MIC (Staphylococcus aureus [3]) [µg/mL] | MIC (Staphylococcus aureus [4]) [µg/mL] |
| --- | --- | --- | --- | --- | --- | --- |
| CO[C@@]12CCCCC1=C(C(=O)[O-])N1C(=O)[C@H]([C@@H](C)O)[C@H]12.[K+] | 2000 | 16 | 8 | 4 | 4 | 4 |
| CO[C@H]1CCC[C@@H]2C1=C(C(=O)[O-])N1C(=O)[C@H]([C@@H](C)O)C21.[K+] (some centres not stated) | 4000 | 32 | 32 | 16 | 2 | 1 |
| CO[C@]12CCCCC1=C(C(=O)[O-])N1C(=O)[C@H]([C@@H](C)O)[C@H]12.[K+] | 2000 | 32 | 32 | 8 | 4 | 8 |
| CO[C@H]1CCC[C@H]2C1=C(C(=O)[O-])N1C(=O)[C@H]([C@@H](C)O)C21.[K+] (some centres not stated) | 30 | 1 | 0.5 | 0.5 | 0.25 | 0.25 |
| CO[C@@H]1CCC[C@H]2C1=C(C(=O)[O-])N1C(=O)[C@H]([C@@H](C)O)C21.[K+] (some centres not stated) | 120 | 8 | 1 | 4 | 0.5 | 0.5 |
| CO[C@@H]1CCC[C@@H]2C1=C(C(=O)[O-])N1C(=O)[C@H]([C@@H](C)O)C21.[K+] (some centres not stated) | 1000 | 32 | 16 | 16 | 2 | 2 |
| C[C@@H](O)[C@H]1C(=O)N2C(C(=O)O)=C(SCCNC=N)C[C@H]12.O [IMIPENEM] | 30 | 2 | 0.5 | 0.5 | 0.12 | 0.1 |
